Measurements from paper PMC4228444 (BMC Complementary and Alternative Medicine, 2013).
≈ marks a conversion by molar mass, not a printed value. Where “and” joins values, the source holds several entries; their conditions need not be identical. Identical values can stand only once. Numbered stars: 1 amine (or outer) side, 2 acyl side, 3 side chain; on linkers, the order of the positions; unused ones are H or OH. Bridge positions count the residues as written; N and C are the ends. Square brackets hold non-standard residues; d marks the D form. Peptide text beside a SMILES is read from it. I, II: the chains in the order shown. Actinocin(9to1) = Cc1c2oc3c(C)ccc(C(=O)[*:1])c3nc-2c(C(=O)[*:2])c(N)c1=O; NMeV = CN[C@H](C(=O)O)C(C)C; Sar = CNCC(=O)O

How the values were obtained:
[1] = isolated from Anacardium occidentale; cited from earlier work
[2] = DPPH antioxidant assay; format: biochemical; details: for Antioxidant IC50 / IC50: DPPH; for Antioxidant IC50: 550 nm; for IC50: value in brackets; for Antioxidant Mg Vit C equivalents/g dry weight: IC50 vit C/IC50 sample × 1000
Procedure: Antioxidant activity of the ethanol extract of S. jambos and compounds was investigated using 1,2-diphenyl-1-picrylhydrazyl (DPPH) antioxidant assay. Following the procedures as described by DuToit et al. for each sample, a dilution series (8 dilutions) was prepared in a 96 well plate by adding distilled water as a dilution medium. Final concentration of the samples ranged from 100 to 0.7 μg/ml. Each concentration was tested in triplicate. Vitamin C was used as a positive control. […] The radical scavenging activity was measured in terms of the amount of antioxidants necessary to decrease the initial DPPH absorbance by 50% (IC50). The IC50 value of each sample was determined graphically by plotting the absorbance of DPPH as a function of the sample concentration in μg/ml. The IC50 is the amount of antioxidant necessary to decrease the initial DPPH absorbance by 50%. The results are expressed as the mg vitamin C equivalents/g dry weight and calculated as follows: […]

[3] = tested on: TNF α; experiment: TNF α release from U937 cells stimulated with heat-killed P. acnes (ELISA); format: cell-based, human; details: for Inhibitory ratio (%) TNF α: 18 h; for Suppression of TNF α release (range stated jointly for IL 8 and TNF α): abstract summary
Procedure: (§1) Briefly, the log phase culture of P. acnes was harvested, washed three times with phosphate buffer saline (PBS), and incubated at 80°C for 30 min to kill the bacteria. The heat-killed bacteria were stored at 4°C until use. […] Pentoxifylline was used as a control. […] Cytokine standards were serially diluted to facilitate the construction of calibration curves necessary for determining protein concentration after treatment with test samples. The ratio (%) of inhibition of the cytokine release was calculated using the following equation: […] Where T represents the concentration of the cytokine in the culture supernatant with the test sample, and C represents the concentration of cytokine in the culture supernatant with the solvent.

[4] = tested on: Propionibacterium acnes (ATCC 11827); experiment: Antibacterial activity, broth microdilution MIC (INT colour change); format: cell-based; details: P. acnes, 72 h anaerobic; for MIC: Cutibacterium acnes, ATCC11827, 72 h
Procedure: The ethanol extract and compounds were tested against P. acnes by determining the minimum inhibitory concentration (MIC) values obtained by a microdilution method as previously described with few modifications. Briefly, the bacteria was cultured from a Kwik-Stick on nutrient agar and incubated at 37°C for 72 h under anaerobic conditions before the assay. The 72 h culture of the bacteria was dissolved in nutrient broth and the suspension was adjusted to 0.5 McFarland standard turbidity. […] In a sterile 96-well plate, 100 μl of samples from the stock solution consisting of the plant extract/isolated compounds (2 mg/ml in 10% dimethyl sulphoxide (DMSO)) and the positive control tetracycline (0.2 mg/ml) were diluted with broth. Twofold serial dilutions were made in broth over a range to give concentrations of 500–3.9 μg/ml and 50–0.3 and μg/ml for the plant extract/ isolated compounds and positive control tetracycline, respectively. The bacterial suspension (100 μl) was then added to the wells. The wells with 2.5% DMSO and bacterial suspension without samples served as the solvent and negative controls, respectively. The plates were incubated at 37°C for 72 h in an anaerobic environment.

[5] = In vitro cytotoxicity assay (XTT), U937; details: human
Procedure: (§2) The mouse melanocytes (B16-F10) cells were cultured in a complete Minimum Essential Eagle’s Medium (MEM) whereas the human U937 cells were cultured in Roswell Park Memorial Institute (RPMI) containing 10% fetal bovine serum (FBS) and 1% gentamycin. B16-F10 (10^5 cells per well) and U937 (10^6 cells per well) were seeded into a 96-well plate. After an overnight incubation at 37°C in 5% CO2 and a humidified atmosphere, the extract, compounds and the positive control (actinomycin D) were added to the cells. […] The highest concentration of positive control (0.05 μg/ml) was serially diluted to eight consecutive wells. The plate was then incubated at 37°C in 5% CO2, and a humidified atmosphere after which the toxic effects of the extracts were assayed using the XTT (sodium 3’-[1-(phenyl amino-carbonyl)-3,4-tetrazolium]-bis-[4-methoxy-6-nitrobenzene sulfonic acid hydrate) cytotoxicity assay. […] The optical densities of the wells were measured at 450 nm (690 nm reference wavelength) using BIOTEK Power-wave XS multi well reader (A.D.P., Weltevreden Park, South Africa). By referring to the control (medium with DMSO), the cell survival rate was assessed.

[6] = In vitro cytotoxicity assay (XTT), B16-F10; details: mouse
Procedure: as §2

[7] = tested on: IL 8; experiment: IL 8 release from U937 cells stimulated with heat-killed P. acnes (ELISA); format: cell-based, human; details: for Inhibitory ratio (%) IL 8: 18 h; for Suppression of IL 8 release (range stated jointly for IL 8 and TNF α): abstract summary; for Inhibition of IL 8 in words: at the highest concentration tested
Procedure: as §1

[8] = tested on: vancomycin-resistant enterococci; parameters: method as in PMID 17541170; details: cited from earlier work
[9] = tested on: U937 human macrophage; experiment: In vitro cytotoxicity assay (XTT), U937; details: U937 cells
Procedure: as §2

[10] = tested on: P. acnes; parameters: method as in doi:10.1021/jf00030a036; details: cited from earlier work
[11] = tested on: P. acnes; experiment: Transmission electron microscopy of treated P. acnes; format: cell-based, Propionibacterium acnes; details: 50 μg/ml, 72 h
Procedure: The TEM procedures followed the protocol of a previous publication. Briefly, bacteria was concentrated by centrifugation at 10 000 rpm for 1 min. The pellet was resuspended in nutrient broth to a final OD550 nm of 1. […] The bacterial suspension (5 ml) was mixed with plant extract and pure compound to a final concentration of 300 and 100 μg/ml for plant extract and 50 μg/ml for pure compound. Tetracycline (50 μg/ml) and DMSO (2.5%) were used as positive and solvent control, respectively. The pathogen was treated for 72 h; the control group consisted of only bacterial suspension in nutrient broth. Treated and untreated P. acnes cultures were centrifuged and fixed in 2.5% glutraldehyde in phosphate buffer at room temperature for 1 h. Samples were washed with phosphate buffer and postfixed in both 1% osmium tetraoxide and uranyl acetate. The cells were dehydrated in ethanol and embedded in quetol resin. Thin sections were prepared with a microtome and micrographs were taken using a JEOL JEM-2100 F field emission electron microscope.

[12] = at the highest concentration tested

## 6-pentadecenylsalicylic acid
[1]
  DPPH radical scavenging activity in words: did not exhibit notable DPPH radical scavenging activity

## O=C(O)c1cc(O)c(O)c(O)c1 [Gallic acid, gallic acid]
[2]
  Antioxidant IC50: 0.8 µg/mL
  IC50: 4.8 µM
  Antioxidant Mg Vit C equivalents/g dry weight: 2444.9 Mg Vit C equivalents/g dry weight
[3]; [12]
  Inhibition of TNF α in words: suppressed TNF α drastically
[4]; 37°C
  MIC: > 500 µg/mL
  Antibacterial MIC: Na (not active at the highest concentration tested (500 μg/ml))
[5]
  EC50: 28.4 µg/mL and 169 µM
[6]
  EC50: 2.2 µg/mL and 13.1 µM

## CC(=O)CCCCn1c(=O)c2c(ncn2C)n(C)c1=O [Pentoxifylline, reference compound]
[7]; final concentration 10 μg/ml
  Inhibitory ratio (%) IL 8: -0.16%
[7]; final concentration 50 μg/ml
  Inhibitory ratio (%) IL 8: -5.0%
[7]; final concentration 100 μg/ml
  Inhibitory ratio (%) IL 8: -1.3%
[7]; pentoxifylline control
  Change in IL 8 concentration in words: no significant change
[3]; at 100 and 50 μg/ml
  Inhibition of TNF α in words: Very high inhibition
[3]; final concentration 10 μg/ml
  Inhibitory ratio (%) TNF α: 66.8%
[3]; final concentration 50 μg/ml
  Inhibitory ratio (%) TNF α: 99.7%
[3]; final concentration 100 μg/ml
  Inhibitory ratio (%) TNF α: 99.7%

## CC(C)=CCC/C(C)=C/CC/C(C)=C/CC/C=C(\C)CC/C=C(\C)CCC=C(C)C [Squalene, squalene]
[2]
  Antioxidant IC50: >100 µg/mL
[4]; 37°C
  MIC: > 500 µg/mL
  Antibacterial MIC: Na (not active at the highest concentration tested (500 μg/ml))
[5]
  EC50: > 100 µg/mL
  viability at 100 μg/ml: 100%
[6]; B16-F10 melanocyte cells
  viability at 100 μg/ml: 100%
[6]; B16-F10 mouse melanocyte cells
  EC50: > 100 µg/mL

## C[C@H]1[C@H](C)CC[C@]2(C(=O)O)CC[C@]3(C)C(=CC[C@@H]4[C@@]5(C)CC[C@H](O)C(C)(C)[C@@H]5CC[C@]43C)[C@H]12 [Ursolic acid, ursolic acid]
[7]
  Suppression of IL 8 release (range stated jointly for IL 8 and TNF α): 74 - 99%
  Inhibition of IL 8 in words: significant inhibition
[3]
  Suppression of TNF α release (range stated jointly for IL 8 and TNF α): 74 - 99%
[3]; [12]
  Inhibition of TNF α in words: significant inhibition
[4]; 37°C
  MIC: > 500 µg/mL
  Antibacterial MIC: Na (not active at the highest concentration tested (500 μg/ml))
[8]
  MIC: 4 µg/mL (≈ 8.76 µM)
[5]; U937 human macrophage cells
  EC50: 38 µg/mL and 83.2 µM
[9]
  Toxicity in words: moderately toxic

## Cc1c2oc3c(C)ccc(C(=O)N[C@@H]4C(=O)N[C@H](C(C)C)C(=O)N5CCC[C@H]5C(=O)N(C)CC(=O)N(C)[C@@H](C(C)C)C(=O)O[C@@H]4C)c3nc-2c(C(=O)N[C@@H]2C(=O)N[C@H](C(C)C)C(=O)N3CCC[C@H]3C(=O)N(C)CC(=O)N(C)[C@@H](C(C)C)C(=O)O[C@@H]2C)c(N)c1=O [actinomycin D, reference compound] (I: T[dV]P[Sar][NMeV] / II: T[dV]P[Sar][NMeV]; ester I:1-I:C, II:1-II:C; linker I:N-II:N via Actinocin(9to1))
[5]
  EC50: 0.0045 µg/mL (≈ 0.00358 µM)
[6]
  EC50: 0.0045 µg/mL (≈ 0.00358 µM)

## CCCCCCCCCCCCCCCc1cccc(O)c1C(=O)O [pentadecyl salicylic acid]
[10]
  MIC: 0.78 µg/mL (≈ 2.24 µM)

## CN(C)[C@@H]1C(O)=C(C(N)=O)C(=O)[C@@]2(O)C(O)=C3C(=O)c4c(O)cccc4[C@@](C)(O)[C@H]3C[C@@H]12 [tetracycline, reference compound]
[11]
  TEM: cell injury to P. acnes: significant damages to the cells of P. acnes
[4]; 37°C
  MIC: 3.1 µg/mL
[4]; value in brackets
  MIC: 7 µM

## O=C1O[C@H]([C@@H](O)CO)C(O)=C1O [vitamin C, reference compound]
[2]
  Antioxidant IC50: 1.9 µg/mL
  IC50: 11.3 µM

## myricitrin
[2]
  Antioxidant IC50: 1.8 µg/mL
  IC50: 4 µM
  Antioxidant Mg Vit C equivalents/g dry weight: 1081.0 Mg Vit C equivalents/g dry weight
[7]
  Suppression of IL 8 release (range stated jointly for IL 8 and TNF α): 74 - 99%
  Inhibition of IL 8 in words: significant inhibition
[7]; final concentration 10 μg/ml
  Inhibitory ratio (%) IL 8: 40.6%
[7]; final concentration 50 μg/ml
  Inhibitory ratio (%) IL 8: 94.3%
[7]; final concentration 100 μg/ml
  Inhibitory ratio (%) IL 8: 99.6%
[3]
  Suppression of TNF α release (range stated jointly for IL 8 and TNF α): 74 - 99%
[3]; [12]
  Inhibition of TNF α in words: significant inhibition
[3]; final concentration 10 μg/ml
  Inhibitory ratio (%) TNF α: 32.8%
[3]; final concentration 50 μg/ml
  Inhibitory ratio (%) TNF α: 99.7%
[3]; final concentration 100 μg/ml
  Inhibitory ratio (%) TNF α: 99.7%
[4]; 37°C
  Antibacterial MIC: Na (not active at the highest concentration tested (500 μg/ml))
[4]; 37°C, listed as myricitrin
  Antibacterial MIC: > 500 µg/mL

## pentadecadienyl salicylic acid
[10]
  MIC: 0.78 µg/mL

## pentadecatrienyl salicylic acid
[10]
  MIC: 0.78 µg/mL

## pentadecenyl salicylic acid
[10]
  MIC: 0.78 µg/mL
